Data taken from publication PMC11410943 (Nature Communications, 2024).
pIC50: −log10 of the molar value. In brackets after ≈: the same amount, converted by molar mass. Like-named read-outs stand apart in the source and are kept apart here.

Assays:
[1] = system: A. baumannii; assay type: cell-based
[2] = system: E. cloacae; assay type: cell-based
[3] = system: Citrobacter spp.; assay: MIC; settings: IHMA/CARB-X MDR clinical isolates 2019, N=151
[4] = system: Pseudomonas aeruginosa; assay: MIC; settings: for MIC: Pseudomonas aeruginosa
[5] = system: Klebsiella pneumoniae; assay: MIC
[6] = system: AChE, MAO-B, Adrenergic α1 A, 5-HT1A; assay: Cerep-88 secondary pharmacology screen
[7] = system: Staphylococcus aureus; assay: MIC
[8] = system: A. baumannii; assay: Neutropenic mouse; assay type: in vivo; settings: SC every 8 h, wild-type and MDR isolates
[9] = system: Enterococcus faecalis; assay: MIC; settings: read-out: median MIC
[10] = Hepatocyte stability / intrinsic clearance; assay type: in vitro ADME, human
[11] = Dog pharmacokinetic study; assay type: in vivo, Beagle dog; settings: dogs
[12] = system: E. coli; assay: Neutropenic rat lung infection model; assay type: in vivo; settings: IV infusion, MDR isolates
[13] = biological target: P-glycoprotein (P-gp) (Homo sapiens, UniProt P08183); assay: P-gp substrate determination; assay type: in vitro ADME
[14] = system: Morganella morganii; assay: MIC; settings: IHMA/CARB-X MDR clinical isolates 2019, N=42
[15] = Hepatocyte stability / intrinsic clearance; assay type: in vitro ADME, monkey
[16] = MAD study C002-2023-01; assay type: in vivo, healthy human volunteers; settings: 240 mg, two subjects
[17] = system: P. aeruginosa; assay: Killing kinetics assay; assay type: cell-based; settings: 0.5X to 16X MIC, susceptible and MDR strains
[18] = system: diverse Gram-negative pathogens
[19] = system: Acinetobacter baumannii; assay: MIC; settings: Acinetobacter baumannii
[20] = biological target: hERG (Homo sapiens, UniProt Q12809); assay: hERG manual patch-clamp; assay type: cell-based
[21] = Hepatocyte stability / intrinsic clearance; assay type: in vitro ADME, rat
[22] = system: Proteus spp.; assay: MIC; settings: IHMA/CARB-X MDR clinical isolates 2019, N=152
[23] = system: E. faecalis / E. faecium; assay: MIC
[24] = system: Serratia marcescens; assay: MIC; settings: IHMA/CARB-X MDR clinical isolates 2019, N=45
[25] = IVIVE of clearance in humans; parameters: species or system human
[26] = Plasma protein binding, equilibrium dialysis; assay type: in vitro ADME, rats; settings: % bound
[27] = system: E. coli; assay: Killing kinetics assay; assay type: cell-based; settings: 0.5X to 16X MIC, susceptible and MDR strains
[28] = biological target: bile salt export pump (BSEP) (Homo sapiens, UniProt O95342); assay: BSEP inhibition and substrate determination; assay type: in vitro ADME; settings: up to 50 µM
[29] = Dog cardiovascular study; assay type: in vivo
[30] = Permeability; assay type: in vitro ADME
[31] = system: A. baumannii
[32] = system: P. aeruginosa
[33] = system: E. coli
[34] = system: K. pneumoniae; assay: Killing kinetics assay; assay type: cell-based; settings: 0.5X to 16X MIC, susceptible and MDR strains
[35] = system: P. mirabilis; assay: MIC; settings: Proteus mirabilis, read-out: median MIC
[36] = system: Neisseria gonorrhoeae; assay: MIC; settings: IHMA/CARB-X isolates 1997 to 2021, N=90
[37] = Dog 14-day GLP toxicology; assay type: in vivo
[38] = system: other cardiac ion channels; assay: Other cardiac ion channels; assay type: cell-based
[39] = Partitioning into red blood cells; assay type: in vitro ADME
[40] = system: P. aeruginosa; assay: Neutropenic rat lung infection model; settings: IV infusion, MDR isolates
[41] = biological target: acetylcholine esterase (AChE) (Homo sapiens, UniProt P22303); assay: AChE inhibition, reversibility on dilution; assay type: biochemical; settings: 30 μM, 100-fold dilution to 0.3 μM, excess AChE
[42] = IHMA/CARB-X MDR clinical isolates 2019, N=300
[43] = read-out: median MIC, panel of ATCC strains

Sequence of hERG (Q12809 whole entry): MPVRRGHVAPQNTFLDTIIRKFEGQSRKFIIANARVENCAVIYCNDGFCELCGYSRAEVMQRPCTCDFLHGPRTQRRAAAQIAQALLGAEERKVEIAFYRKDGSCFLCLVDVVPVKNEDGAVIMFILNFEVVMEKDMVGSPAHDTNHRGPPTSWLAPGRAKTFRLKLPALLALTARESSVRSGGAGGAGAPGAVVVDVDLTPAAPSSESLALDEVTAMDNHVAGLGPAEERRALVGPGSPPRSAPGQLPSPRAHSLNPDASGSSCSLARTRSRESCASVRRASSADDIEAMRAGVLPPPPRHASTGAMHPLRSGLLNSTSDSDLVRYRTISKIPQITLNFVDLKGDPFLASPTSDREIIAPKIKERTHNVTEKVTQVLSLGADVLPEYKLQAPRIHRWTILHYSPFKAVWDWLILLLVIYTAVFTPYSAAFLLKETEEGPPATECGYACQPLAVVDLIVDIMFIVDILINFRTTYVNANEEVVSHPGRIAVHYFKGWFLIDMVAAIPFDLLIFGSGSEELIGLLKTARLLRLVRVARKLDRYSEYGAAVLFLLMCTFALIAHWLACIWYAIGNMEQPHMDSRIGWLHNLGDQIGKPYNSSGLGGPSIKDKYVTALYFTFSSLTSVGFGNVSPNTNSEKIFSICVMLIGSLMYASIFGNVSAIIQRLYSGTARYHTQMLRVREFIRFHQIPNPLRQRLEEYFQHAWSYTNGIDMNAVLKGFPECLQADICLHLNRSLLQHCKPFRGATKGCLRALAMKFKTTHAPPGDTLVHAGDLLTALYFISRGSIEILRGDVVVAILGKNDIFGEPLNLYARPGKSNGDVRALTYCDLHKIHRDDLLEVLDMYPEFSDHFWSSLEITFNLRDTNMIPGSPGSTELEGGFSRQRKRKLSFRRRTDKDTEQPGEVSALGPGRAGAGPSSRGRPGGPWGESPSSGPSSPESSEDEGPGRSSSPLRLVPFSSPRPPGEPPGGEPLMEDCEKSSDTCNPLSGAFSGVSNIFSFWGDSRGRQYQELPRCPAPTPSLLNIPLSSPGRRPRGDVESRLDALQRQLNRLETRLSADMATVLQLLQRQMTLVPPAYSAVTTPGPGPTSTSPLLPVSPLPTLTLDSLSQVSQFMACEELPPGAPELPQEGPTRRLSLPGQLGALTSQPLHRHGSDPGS
Sequence of P-glycoprotein (P-gp) (P08183 whole entry): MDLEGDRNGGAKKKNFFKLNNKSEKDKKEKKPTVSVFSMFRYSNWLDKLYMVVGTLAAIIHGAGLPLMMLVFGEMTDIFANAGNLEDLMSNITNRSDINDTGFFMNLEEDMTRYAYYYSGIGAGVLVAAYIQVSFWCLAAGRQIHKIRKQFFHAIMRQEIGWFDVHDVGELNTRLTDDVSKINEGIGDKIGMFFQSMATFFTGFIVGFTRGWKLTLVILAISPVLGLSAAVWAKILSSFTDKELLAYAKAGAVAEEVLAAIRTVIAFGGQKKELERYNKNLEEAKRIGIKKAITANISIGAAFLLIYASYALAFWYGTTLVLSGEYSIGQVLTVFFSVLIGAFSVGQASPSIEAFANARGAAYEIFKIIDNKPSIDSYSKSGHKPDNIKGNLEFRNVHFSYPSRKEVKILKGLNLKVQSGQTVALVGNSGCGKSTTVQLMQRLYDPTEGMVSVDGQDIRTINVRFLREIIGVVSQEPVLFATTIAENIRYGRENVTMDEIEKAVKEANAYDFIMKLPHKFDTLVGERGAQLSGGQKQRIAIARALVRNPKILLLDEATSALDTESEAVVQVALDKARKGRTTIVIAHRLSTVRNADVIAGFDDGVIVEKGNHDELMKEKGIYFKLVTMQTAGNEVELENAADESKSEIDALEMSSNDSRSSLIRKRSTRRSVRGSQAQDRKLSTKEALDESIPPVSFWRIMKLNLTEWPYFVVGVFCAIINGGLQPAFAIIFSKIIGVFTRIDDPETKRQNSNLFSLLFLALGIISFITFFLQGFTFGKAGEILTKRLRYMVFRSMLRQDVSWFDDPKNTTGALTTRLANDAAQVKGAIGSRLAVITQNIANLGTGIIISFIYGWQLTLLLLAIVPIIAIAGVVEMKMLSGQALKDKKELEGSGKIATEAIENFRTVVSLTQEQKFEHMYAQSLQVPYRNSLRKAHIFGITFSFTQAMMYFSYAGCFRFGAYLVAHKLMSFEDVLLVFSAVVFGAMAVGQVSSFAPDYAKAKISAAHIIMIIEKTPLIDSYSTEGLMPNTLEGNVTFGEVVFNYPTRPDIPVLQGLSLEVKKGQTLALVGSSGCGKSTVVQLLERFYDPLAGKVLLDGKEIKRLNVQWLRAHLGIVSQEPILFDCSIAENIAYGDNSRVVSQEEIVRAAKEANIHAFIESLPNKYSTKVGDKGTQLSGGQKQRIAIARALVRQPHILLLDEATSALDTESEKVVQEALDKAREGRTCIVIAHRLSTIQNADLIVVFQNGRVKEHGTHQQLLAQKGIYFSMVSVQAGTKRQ
Sequence of acetylcholine esterase (AChE) (P22303 32-614): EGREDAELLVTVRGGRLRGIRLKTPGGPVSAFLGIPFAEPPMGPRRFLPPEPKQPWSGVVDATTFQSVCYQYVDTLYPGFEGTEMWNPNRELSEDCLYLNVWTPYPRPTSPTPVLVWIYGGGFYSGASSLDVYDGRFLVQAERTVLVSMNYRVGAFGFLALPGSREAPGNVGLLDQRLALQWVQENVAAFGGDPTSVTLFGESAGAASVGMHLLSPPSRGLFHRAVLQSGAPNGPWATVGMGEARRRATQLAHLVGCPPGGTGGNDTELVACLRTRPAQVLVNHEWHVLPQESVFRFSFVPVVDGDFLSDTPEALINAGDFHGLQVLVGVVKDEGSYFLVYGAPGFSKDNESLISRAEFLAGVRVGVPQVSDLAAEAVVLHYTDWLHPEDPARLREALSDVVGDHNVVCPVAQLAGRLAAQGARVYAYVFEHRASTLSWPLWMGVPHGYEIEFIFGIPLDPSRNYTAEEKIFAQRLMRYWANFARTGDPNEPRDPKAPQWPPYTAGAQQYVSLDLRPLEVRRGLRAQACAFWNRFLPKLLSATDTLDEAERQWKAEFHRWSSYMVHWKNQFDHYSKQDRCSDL
Sequence of bile salt export pump (BSEP) (O95342 whole entry, species assumed): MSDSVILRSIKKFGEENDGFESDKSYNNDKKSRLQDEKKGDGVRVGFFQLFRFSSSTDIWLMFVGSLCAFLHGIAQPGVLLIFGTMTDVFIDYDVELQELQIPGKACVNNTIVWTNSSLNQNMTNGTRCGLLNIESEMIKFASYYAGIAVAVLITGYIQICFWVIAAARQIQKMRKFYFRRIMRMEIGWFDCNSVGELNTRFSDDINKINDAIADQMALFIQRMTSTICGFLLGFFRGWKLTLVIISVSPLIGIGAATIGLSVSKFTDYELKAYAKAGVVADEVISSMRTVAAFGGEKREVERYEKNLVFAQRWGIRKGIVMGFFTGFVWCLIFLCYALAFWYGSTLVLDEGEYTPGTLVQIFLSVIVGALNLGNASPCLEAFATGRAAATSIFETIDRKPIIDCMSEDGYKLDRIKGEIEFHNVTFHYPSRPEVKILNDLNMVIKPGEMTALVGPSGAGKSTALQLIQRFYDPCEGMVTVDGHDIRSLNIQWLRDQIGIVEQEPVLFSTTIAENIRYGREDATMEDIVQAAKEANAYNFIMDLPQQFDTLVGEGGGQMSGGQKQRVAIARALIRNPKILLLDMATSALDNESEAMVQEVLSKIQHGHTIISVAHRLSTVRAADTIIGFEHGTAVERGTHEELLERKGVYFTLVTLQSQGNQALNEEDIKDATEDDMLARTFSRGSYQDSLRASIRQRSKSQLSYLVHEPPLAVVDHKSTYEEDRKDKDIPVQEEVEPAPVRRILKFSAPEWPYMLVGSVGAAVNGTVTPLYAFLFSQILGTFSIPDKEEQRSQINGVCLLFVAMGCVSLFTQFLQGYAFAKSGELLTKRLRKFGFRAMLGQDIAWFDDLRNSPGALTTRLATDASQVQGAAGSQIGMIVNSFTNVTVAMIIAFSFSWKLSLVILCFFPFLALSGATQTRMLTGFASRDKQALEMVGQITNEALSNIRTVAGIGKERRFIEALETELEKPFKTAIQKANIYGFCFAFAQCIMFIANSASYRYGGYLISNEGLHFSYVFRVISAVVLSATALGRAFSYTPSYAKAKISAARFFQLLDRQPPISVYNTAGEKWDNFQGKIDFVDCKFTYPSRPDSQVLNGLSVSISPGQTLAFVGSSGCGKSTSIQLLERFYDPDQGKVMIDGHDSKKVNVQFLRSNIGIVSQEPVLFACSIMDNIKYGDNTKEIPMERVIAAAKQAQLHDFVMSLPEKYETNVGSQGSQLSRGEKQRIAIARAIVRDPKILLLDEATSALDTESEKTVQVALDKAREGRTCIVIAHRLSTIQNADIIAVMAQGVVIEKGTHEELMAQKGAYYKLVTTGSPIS

Compound: Cn1c(=O)ccc2ccc(F)c(CCNC[C@H]3CN(c4cnc5c(n4)NC(=O)CO5)C(=O)O3)c21 [BWC0977, 6-[(5S)−5-[[[2-(7-Fluoro-1,2-dihydro-1-methyl-2-oxo-8-quinolinyl)ethyl]amino]methyl]−2-oxo-3-oxazolidinyl]−2H-pyrazino[2,3-b]−1,4-oxazin-3(4H)-one]
- in vitro killing kinetics [1]: significant bactericidal activity
- in vitro killing kinetics [2]: significant bactericidal activity
- MIC90 [3]: 1 µg/mL (≈ 2.13 µM)
- MIC90 [4, 42]: 1 µg/mL (≈ 2.13 µM)
- MIC ([4]; NCTC13921, P. aeruginosa NCTC 13921): 0.25 µg/mL (≈ 0.534 µM)
- MIC [4, 43]: 0.25 µg/mL (≈ 0.534 µM)
- MIC90 [5, 42]: 2 µg/mL (≈ 4.27 µM)
- MIC ([5]; Klebsiella pneumoniae, read-out: median MIC, panel of ATCC strains): 0.03 µg/mL (≈ 0.064 µM)
- result in Cerep-88 screen [6]: hits
- MIC ([7]; Staphylococcus aureus, read-out: median MIC): 0.01 µg/mL (≈ 0.0213 µM)
- MIC90 ([7]; global panel, N=560, including MRSA): 0.03 µg/mL (≈ 0.064 µM)
- dose-ranging efficacy (bacterial burden) [8]: excellent dose-response
- MIC [9]: 0.06 µg/mL (≈ 0.128 µM)
- clearance predicted from CLint, % of liver blood flow (LBF) [10]: < 30%
- unchanged drug excreted in urine [11]: 10%
- dose-response efficacy [12]: excellent bactericidal dose-response
- P-gp substrate status [13]: substrate
- MIC90 [14]: 1 µg/mL (≈ 2.13 µM)
- MIC90 ([14]; Morganella morganii): 1 µg/mL (≈ 2.13 µM)
- clearance predicted from CLint, % of liver blood flow (LBF) [15]: < 30%
- systemic adverse events [16]: no systemic adverse events
- infusion site finding on ultrasound ([16]; 12/14 and 14/14 doses): small non-occlusive thrombus proximal to the infusion site in both volunteers
- in vitro killing kinetics [17]: significant bactericidal activity
- spontaneous resistance frequency [18]: < 10^−9
- MIC90 ([19]; IHMA/CARB-X MDR clinical isolates 2019, N=298): 1 µg/mL (≈ 2.13 µM)
- MIC [19, 43]: 0.06 µg/mL (≈ 0.128 µM)
- pIC50 [20]: 4.30
- clearance predicted from CLint, % of liver blood flow (LBF) [21]: < 30%
- MIC90 [22]: 0.5 µg/mL (≈ 1.07 µM)
- MIC90 [23]: 0.06 µg/mL (≈ 0.128 µM)
- MIC90 [24]: 1 µg/mL (≈ 2.13 µM)
- predicted human plasma CLp [25]: 5.5 mL/min/kg
- predicted % human LBF ([25]; human LBF […]): 28%
- plasma protein binding [26]: 94%
- in vitro killing kinetics [27]: significant bactericidal activity
- BSEP substrate / inhibitor status [28]: neither a substrate nor an inhibitor
- increase in QTc ([29]; 1-hour infusion of 30 or 60 mg/kg, within 3−6 h): 4 to 11 ms
- heart rate ([29]; 30 and 60 mg/kg): notable increase in heart rate
- permeability [30]: low permeability
- in vitro resistance frequency [31]: 2.5 × 10^−9
- resistance frequency [31]: 2.5 × 10^−8
- in vitro resistance frequency [32]: < 1 × 10^−9
- resistance frequency [32]: < 1 × 10^−9
- in vitro resistance frequency [33]: < 1 × 10^−9
- resistance frequency [33]: 4 × 10^−9
- in vitro killing kinetics [34]: significant bactericidal activity
- MIC [35]: 0.12 µg/mL (≈ 0.256 µM)
- MIC90 [36]: ≤ 0.016 µg/mL
- microscopic findings ([37]; dose levels above 40 mg/kg/day): Microscopic changes consistent with hepatobiliary toxicity
- NOAEL at 14 day ([37]; in vivo): 40 mg/kg/day
- AUC(0-t) ([37]; in vivo, 40 mg/kg/day): 90000 ng·h/mL
- Cmax ([37]; in vivo, 40 mg/kg/day): 25000 ng/mL
- concentration up to which other cardiac ion channels are not inhibited [38]: > 300 µM
- partitioning into red blood cells [39]: neither partitions into red blood cells
- dose-response efficacy [40]: excellent bactericidal dose-response
- reversibility of AChE inhibition [41]: rapidly reversed
